Measurements taken from ChEMBL document CHEMBL1201862, “PubChem BioAssay data set” (2004).
Values joined by “and” are separate entries in the source; they are usually repeats but may differ in a detail not shown here. Equal values may be shown once. Active and inactive are the calls of the source.

Assays:
[1] = non-specific 3'UTR reporter inhibition in Clone20-Shn3RL – cell-based, Renilla luciferase, cherry-picked, counter-screen for Shn3 inhibitor project, dose response (AID 624133); assay type: functional
[2] = reduction of Shn3 3'UTR-driven luciferase in osteoblasts – cell-based, Clone20 osteoblasts, firefly luciferase, cherry-picked, dose response (AID 624132); assay type: functional;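 also: firefly luciferase luminescence from reporter carrying the Shn3 3'UTR in osteoblasts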
[3] = loss of viability in HepG2 cells – cell-based, CellTiter-Glo, cherry-picked, cytotoxicity control for Shn3 inhibitor project, dose response (AID 624134); assay type: functional
Cytochrome P450 2D6 = Cytochrome P450 2D6 (Homo sapiens, UniProt P10635);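 also: CYP2D6 member of a cytochrome P450 panel assay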
Sequence of Cytochrome P450 2D6 (P10635 whole entry): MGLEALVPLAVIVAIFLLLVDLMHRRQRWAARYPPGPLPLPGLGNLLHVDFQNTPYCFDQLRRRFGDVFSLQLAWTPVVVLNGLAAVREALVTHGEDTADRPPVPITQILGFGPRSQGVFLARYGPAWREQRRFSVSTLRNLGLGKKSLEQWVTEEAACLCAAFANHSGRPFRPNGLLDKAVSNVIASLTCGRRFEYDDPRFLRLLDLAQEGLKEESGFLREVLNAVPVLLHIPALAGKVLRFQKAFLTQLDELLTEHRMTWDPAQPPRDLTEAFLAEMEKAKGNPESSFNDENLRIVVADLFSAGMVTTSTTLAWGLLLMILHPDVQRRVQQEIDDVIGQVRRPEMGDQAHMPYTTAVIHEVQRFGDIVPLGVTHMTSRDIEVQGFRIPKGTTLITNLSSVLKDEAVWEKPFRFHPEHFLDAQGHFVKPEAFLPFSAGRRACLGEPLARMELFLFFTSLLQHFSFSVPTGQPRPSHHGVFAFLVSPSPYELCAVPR

[4] = target: T1, Corticotropin-releasing factor receptor 2/Corticotropin-releasing factor-binding protein (Homo sapiens, UniProt P24387+Q13324); experiment: Dose Response confirmation of uHTS hits for small molecule antagonists of the CRF-binding protein and CRF-R2 receptor complex.; assay type: functional; settings: read-out: IC50_Mean
T1 sequence (Q13324 whole entry): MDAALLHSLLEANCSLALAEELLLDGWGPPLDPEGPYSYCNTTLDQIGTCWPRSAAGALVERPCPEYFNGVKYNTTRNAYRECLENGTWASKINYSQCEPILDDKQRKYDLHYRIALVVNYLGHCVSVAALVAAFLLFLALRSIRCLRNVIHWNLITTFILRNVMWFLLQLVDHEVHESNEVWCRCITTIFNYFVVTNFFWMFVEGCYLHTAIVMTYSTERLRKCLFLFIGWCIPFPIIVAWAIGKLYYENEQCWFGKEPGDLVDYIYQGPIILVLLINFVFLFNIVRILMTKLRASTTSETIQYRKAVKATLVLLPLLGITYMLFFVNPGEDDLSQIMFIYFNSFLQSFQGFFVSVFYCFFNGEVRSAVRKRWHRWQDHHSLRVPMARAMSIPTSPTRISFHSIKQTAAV
T1 sequence (P24387 whole entry): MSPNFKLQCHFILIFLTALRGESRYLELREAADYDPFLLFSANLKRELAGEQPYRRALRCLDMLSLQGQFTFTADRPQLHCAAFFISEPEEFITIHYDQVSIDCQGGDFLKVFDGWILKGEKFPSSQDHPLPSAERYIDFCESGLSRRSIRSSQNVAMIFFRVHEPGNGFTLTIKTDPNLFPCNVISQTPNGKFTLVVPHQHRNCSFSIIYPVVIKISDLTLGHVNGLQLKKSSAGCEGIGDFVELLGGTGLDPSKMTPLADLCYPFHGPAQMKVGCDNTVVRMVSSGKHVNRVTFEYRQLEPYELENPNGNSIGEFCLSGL

[5] = target: T1, Corticotropin-releasing factor receptor 2/Corticotropin-releasing factor-binding protein; experiment: activators of CRF receptor 2 with binding protein – uHTS hits, confirmation (AID 602473); assay type: functional; settings: read-out: EC50_Mean
Cytochrome P450 2C9 = Cytochrome P450 2C9 (Homo sapiens, UniProt P11712)
Sequence of Cytochrome P450 2C9 (P11712 whole entry): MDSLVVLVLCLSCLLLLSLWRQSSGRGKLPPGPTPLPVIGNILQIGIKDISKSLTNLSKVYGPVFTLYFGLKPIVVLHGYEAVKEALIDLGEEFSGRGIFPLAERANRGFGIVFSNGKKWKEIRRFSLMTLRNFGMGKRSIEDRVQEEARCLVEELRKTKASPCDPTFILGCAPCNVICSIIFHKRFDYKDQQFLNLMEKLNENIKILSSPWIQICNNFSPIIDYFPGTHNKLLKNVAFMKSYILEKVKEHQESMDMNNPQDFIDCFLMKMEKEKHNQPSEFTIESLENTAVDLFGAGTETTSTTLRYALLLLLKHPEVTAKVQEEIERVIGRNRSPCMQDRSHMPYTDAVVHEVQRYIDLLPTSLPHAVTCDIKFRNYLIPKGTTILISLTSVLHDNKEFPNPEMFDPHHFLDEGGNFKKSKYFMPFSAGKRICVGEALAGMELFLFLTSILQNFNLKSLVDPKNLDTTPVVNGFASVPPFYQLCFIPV

[6] = Luminescence Cell-Based Dose Response HTS to Identify Activators of Luciferase Translation or Activity in H4 […] Cells. [Related pubchem assays: 1829 (Project Summary), 1814 (Primary HTS)]; assay type: functional
[7] = Luminescence Cell-Based Dose Confirmation HTS to Identify Activators of 5'UTR Stem-Loop Driven Alpha-Synuclein mRNA Translation in H4 Neuroglioblastoma Cells. [Related pubchem assays: 1829 (Project Summary), 1814 (Primary HTS)]; assay type: functional
H4 = experiment: Luminescence Cell-Based Dose Response HTS to Identify Activators of 5'UTR Stem-Loop Driven Prion Protein mRNA Translation in H4 Neuroglioblastoma Cells. [Related pubchem assays: 1829 (Project Summary), 1814 (Primary HTS)]; assay type: functional; settings: Homo sapiens
Cytochrome P450 3A4 = Cytochrome P450 3A4 (Homo sapiens, UniProt P08684);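 also: CYP3A4 tested as one member of a cytochrome P450 panel screen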
Sequence of Cytochrome P450 3A4 (P08684 whole entry): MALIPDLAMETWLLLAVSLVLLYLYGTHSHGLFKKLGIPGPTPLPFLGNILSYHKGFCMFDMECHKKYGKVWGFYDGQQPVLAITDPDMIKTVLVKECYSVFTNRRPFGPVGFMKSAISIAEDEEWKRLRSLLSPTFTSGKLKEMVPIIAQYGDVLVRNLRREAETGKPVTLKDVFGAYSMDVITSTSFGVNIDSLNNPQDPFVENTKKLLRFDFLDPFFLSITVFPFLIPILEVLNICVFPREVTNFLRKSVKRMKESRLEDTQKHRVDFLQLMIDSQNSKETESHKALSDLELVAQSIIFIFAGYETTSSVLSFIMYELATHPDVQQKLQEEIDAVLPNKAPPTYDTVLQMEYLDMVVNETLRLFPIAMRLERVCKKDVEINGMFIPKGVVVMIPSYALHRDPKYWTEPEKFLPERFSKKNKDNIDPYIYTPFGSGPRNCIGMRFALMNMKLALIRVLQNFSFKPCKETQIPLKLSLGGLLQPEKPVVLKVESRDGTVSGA

Cytochrome P450 1A2 = target: T2, Cytochrome P450 1A2 (Homo sapiens, UniProt P05177);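 also: PubChem cytochrome P450 panel assay, CYP1A2 panel member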
T2 sequence (P05177 whole entry): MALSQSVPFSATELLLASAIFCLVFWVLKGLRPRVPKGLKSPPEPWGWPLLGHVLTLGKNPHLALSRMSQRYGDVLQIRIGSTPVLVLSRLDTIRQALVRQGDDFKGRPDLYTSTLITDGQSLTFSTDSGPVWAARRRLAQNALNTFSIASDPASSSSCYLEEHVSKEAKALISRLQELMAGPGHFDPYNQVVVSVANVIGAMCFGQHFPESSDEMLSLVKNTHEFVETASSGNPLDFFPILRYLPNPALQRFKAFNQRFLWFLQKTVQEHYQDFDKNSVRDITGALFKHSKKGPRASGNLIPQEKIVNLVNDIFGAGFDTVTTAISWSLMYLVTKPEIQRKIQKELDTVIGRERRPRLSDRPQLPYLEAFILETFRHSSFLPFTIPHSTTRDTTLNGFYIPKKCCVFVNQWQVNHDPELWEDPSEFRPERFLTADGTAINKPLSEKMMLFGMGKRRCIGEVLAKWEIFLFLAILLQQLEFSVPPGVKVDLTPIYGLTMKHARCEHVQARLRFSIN

Cytochrome P450 2C19 = Cytochrome P450 2C19 (Homo sapiens, UniProt P33261); experiment: Cytochrome panel assay with activity outcomes. Panel member name: p450-cyp2c19 Compounds with AC50 equal or less than 10 uM are considered active; assay type: functional; settings: read-out: AC50
Sequence of Cytochrome P450 2C19 (P33261 whole entry): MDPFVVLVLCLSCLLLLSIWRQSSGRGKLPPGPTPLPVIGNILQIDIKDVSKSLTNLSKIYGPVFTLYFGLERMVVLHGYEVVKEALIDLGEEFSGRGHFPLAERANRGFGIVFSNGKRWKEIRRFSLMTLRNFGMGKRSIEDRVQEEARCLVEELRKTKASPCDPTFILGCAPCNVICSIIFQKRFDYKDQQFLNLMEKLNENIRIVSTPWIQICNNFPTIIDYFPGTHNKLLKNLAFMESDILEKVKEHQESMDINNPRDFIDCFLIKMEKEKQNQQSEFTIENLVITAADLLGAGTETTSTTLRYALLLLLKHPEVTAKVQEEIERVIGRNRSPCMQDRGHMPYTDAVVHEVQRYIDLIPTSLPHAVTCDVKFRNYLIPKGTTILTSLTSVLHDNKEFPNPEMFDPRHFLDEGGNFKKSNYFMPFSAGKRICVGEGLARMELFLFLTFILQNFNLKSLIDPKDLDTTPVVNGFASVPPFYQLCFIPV

[8] = target: T3, Heat shock factor protein 1 (Mus musculus, UniProt P38532); experiment: enhancement of HSF1-driven luciferase signal – cell-based, NIH3T3, luminescence, dose retest, confirmation (AID 435004); assay type: functional;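 also: stress induced by proteasome inhibitor MG132 added 30 min after compound; luciferase reporter driven by HSF1 response element in NIH3T3 cells; actives raise luminescence as potentiators of the MG132 stress response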
T3 sequence (P38532 whole entry): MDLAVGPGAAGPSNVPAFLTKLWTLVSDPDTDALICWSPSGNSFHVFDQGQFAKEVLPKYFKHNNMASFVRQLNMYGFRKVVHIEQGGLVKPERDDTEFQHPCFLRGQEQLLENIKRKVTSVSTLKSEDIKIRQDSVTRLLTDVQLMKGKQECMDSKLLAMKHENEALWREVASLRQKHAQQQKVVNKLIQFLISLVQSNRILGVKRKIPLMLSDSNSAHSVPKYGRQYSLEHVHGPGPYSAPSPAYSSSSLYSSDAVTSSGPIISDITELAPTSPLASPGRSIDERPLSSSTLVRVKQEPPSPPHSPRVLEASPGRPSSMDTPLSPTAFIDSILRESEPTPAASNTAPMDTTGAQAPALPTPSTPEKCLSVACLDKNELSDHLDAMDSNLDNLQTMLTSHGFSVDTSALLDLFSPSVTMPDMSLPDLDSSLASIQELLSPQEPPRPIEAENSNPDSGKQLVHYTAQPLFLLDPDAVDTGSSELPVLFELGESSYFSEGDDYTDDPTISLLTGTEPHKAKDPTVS

CCC(=O)NC(C)c1cc(Cl)c2cccnc2c1O (stereo not drawn)
AC50 [1]: 1.62 µM (active)
AC50 [2]: 5.19 µM (active)
AC50 [3]: 9.85 µM (active)

COc1cc2c(cc1O)C[C@@H]1c3c(cc(O)c(OC)c3-2)CCN1C
AC50 (Cytochrome P450 2D6): 3.16 µM (inconclusive)

O=S(=O)(c1cccc2nsnc12)N1CCc2ccccc2C1
IC50 [4]: > 47.1 µM (inactive)
EC50 [5]: > 53 µM (inactive)

O=C(c1cc2nc(-c3ccc(F)cc3)cc(C(F)(F)F)n2n1)N1CCOCC1
IC50 [4]: > 47.1 µM (inactive)
EC50 [5]: > 53 µM (inactive)

O=C(CCNS(=O)(=O)c1ccc2c(c1)CCC(=O)N2)NCc1ccc2c(c1)OCO2
AC50 (Cytochrome P450 2C9): 39.8 µM (inconclusive)
AC50 (Cytochrome P450 2D6): 22.4 µM (inconclusive)

O=C1NCC2(CCN(CCc3ccccc3)CC2)O1 [FENSPIRIDE]
AC50 (Cytochrome P450 2D6): 12.6 µM (inconclusive) and 39.8 µM (inconclusive)

Cc1nc(-c2ccc(Cl)cc2)sc1C1(C)CC(c2ccccc2)=NO1 (stereo not drawn)
EC50 [6]: 9.8 µM (active)
EC50 [7]: 7.51 µM (active)
EC50 (H4): 31.3 µM (active)

CCOC(=O)O[C@]1(C(=O)COC(=O)CC)CC[C@@H]2[C@@H]3CCC4=CC(=O)C=C[C@@]4(C)[C@H]3[C@H](O)C[C@]21C
AC50 (Cytochrome P450 3A4): 12.6 µM (inconclusive)
AC50 (Cytochrome P450 2C9): 12.6 µM (inconclusive)
AC50 (Cytochrome P450 2D6): 12.6 µM (inconclusive)

COc1ccc2nc(O)c(CN(CCc3ccccc3)C(C)=O)cc2c1
AC50 (Cytochrome P450 1A2): 14.1 µM (inconclusive)
AC50 (Cytochrome P450 2C9): 14.1 µM (inconclusive)
AC50 (Cytochrome P450 2D6): 14.1 µM (inconclusive)

Cc1ccc(-c2cc3nc(-c4ccccc4)cc(N)n3n2)cc1
EC50 [6]: 0.812 µM (active)
EC50 [7]: 0.163 µM (active)
EC50 (H4): > 120 µM (not active)

COc1ccc(CN2CCC(CO)(CCOc3ccccc3)CC2)cc1C
IC50 [4]: > 47.1 µM (inactive)
EC50 [5]: > 53 µM (inactive)

N#Cc1cn(-c2ccccc2)nc1C(=O)c1ccccc1
EC50 [6]: > 120 µM (not active)
EC50 [7]: > 120 µM (not active)
EC50 (H4): > 120 µM (not active)

CN(C)c1ccc(-c2cncnc2Nc2ccccc2)cc1
AC50 (Cytochrome P450 2D6): 20 µM (inconclusive)

COc1ccc(-n2c(=O)cnc3cnc(Oc4cccc(Cl)c4)nc32)cc1
AC50 (Cytochrome P450 2D6): 39.8 µM (inconclusive)
AC50 (Cytochrome P450 2C19): 15.8 µM (inconclusive)

COc1ccc(CCn2c(-c3ccccc3)nc3c(c(=O)c4ccccc4n3C)c2=O)cc1
EC50 [6]: 24.2 µM (inconclusive)
EC50 [7]: > 120 µM (not active)
EC50 (H4): > 120 µM (not active)

COc1ccc(C(=O)C(OC(=O)c2ccccc2)c2ccccc2)cc1 (stereo not drawn)
EC50 [6]: 30.5 µM (active)
EC50 [7]: 10.7 µM (active)
EC50 (H4): 6.4 µM (active)

CC(=O)N(C)c1ccc(NC(S)=Nc2cccc3ccccc23)cc1
EC50 [6]: 29.5 µM (active)
EC50 [7]: 15.8 µM (active)
EC50 (H4): 30.7 µM (active)

CCOC(=O)C1=NN(c2ccccc2)C2=NC(C)=C(C(=O)OC)C(c3cccs3)N12 (stereo not drawn)
IC50 [4]: > 47.1 µM (inactive)
EC50 [5]: > 53 µM (inactive)

O=C(C[C@H]1C[C@@H]2c3cc(NS(=O)(=O)c4ccccc4)ccc3O[C@@H]2[C@H](CO)O1)N1CCOCC1
IC50 [4]: > 47.1 µM (inactive)
EC50 [5]: > 53 µM (inactive)

CCN(CC)C(=O)CSc1ncnc2c1nnn2-c1ccc(OC)cc1
IC50 [4]: > 47.1 µM (inactive)
EC50 [5]: > 53 µM (inactive)

COc1ccc(CNc2ncnc3ccc(-c4ccc(C(=O)N(C)C)cc4)cc23)c(OC)c1
AC50 (Cytochrome P450 1A2): 39.8 µM (inconclusive)
AC50 (Cytochrome P450 2D6): 20 µM (inconclusive)

Cc1ccccc1Nc1nc(N)nc(COC(=O)c2cccc(S(=O)(=O)N(C)c3ccccc3)c2)n1
IC50 [4]: > 47.1 µM (inactive)
EC50 [5]: > 53 µM (inactive)

O=[N+]([O-])c1ccc(S(=O)(=O)Cc2ccccc2)c([N+](=O)[O-])c1
AC50 (Cytochrome P450 1A2): 5.01 µM (inconclusive)
AC50 (Cytochrome P450 2D6): 2.51 µM (inconclusive)

O=S(=O)(c1ccccc1C(F)(F)F)N1CCN(c2ncnc3sccc23)CC1
AC50 [1]: 9.4 µM (active)
AC50 [2]: 3.44 µM (active)
AC50 [3]: 8.89 µM (active)

FC(F)(F)c1ccccc1-c1cncnc1Nc1ccccc1
AC50 (Cytochrome P450 1A2): 25.1 µM (inconclusive)
AC50 (Cytochrome P450 2D6): 39.8 µM (inconclusive)

Cc1ccc(NC(=O)c2oc3ccccc3c2COC(C)C)cc1S(=O)(=O)N1CCOCC1
AC50 [2]: 14.4 µM (active)
AC50 [3]: > 70 µM (inactive)

CCN(CC)Cc1c(C)nc2ccc(NC(C)=O)cc2c1O
IC50 [4]: > 47.1 µM (inactive)
EC50 [5]: > 53 µM (inactive)

Cc1ccc(S(=O)(=O)c2c(N)n(-c3ccccc3)c3nc4ccccc4nc23)cc1
EC50 [8]: 28.6 µM (active)

CCCCn1c(C)c(C(=O)OCC)c2c(CN3CCOCC3)c(O)ccc21
EC50 [8]: > 260 µM (inactive)

Cc1ccc(Nc2ncnc3sc(C)c(C)c23)cc1
EC50 [6]: 19.5 µM (active)
EC50 [7]: 18.1 µM (active)
EC50 (H4): 26.3 µM (active)

Cc1ccccc1Cn1c(-c2cncs2)nc2ccccc21
EC50 [8]: > 260 µM (inactive)

CN(NC(=O)Nc1ccccc1)c1cnn(C)c(=O)c1Cl
IC50 [4]: > 47.1 µM (inactive)
EC50 [5]: > 53 µM (inactive)

COc1cc(NC(=O)c2cc([N+](=O)[O-])ccc2Br)ccc1NC(=O)c1ccco1
EC50 [8]: 9.95 µM (active)

Cc1ccc(NC(=O)c2sc(N)nc2-c2ccc([N+](=O)[O-])cc2)c(C)c1
EC50 [8]: > 260 µM (inactive)

COc1cccc(CN2CC(C(=O)NCc3ccc(Cl)s3)CCC2=O)c1 (stereo not drawn)
IC50 [4]: > 47.1 µM (inactive)
EC50 [5]: > 53 µM (inactive)

Brc1ccccc1OCCCCn1cnc2ccccc21
EC50 [6]: 16.9 µM (active)
EC50 [7]: > 120 µM (not active)
EC50 (H4): 13 µM (inconclusive)

CC(=O)c1cc(C#N)c(Oc2ccc(Cl)cc2Cl)nc1C
IC50 [4]: > 47.1 µM (inactive)
EC50 [5]: > 53 µM (inactive)

COc1cccc(NS(=O)(=O)c2ccc3ncc(C(=O)NCCN4CCOCC4)c(O)c3c2)c1
AC50 (Cytochrome P450 1A2): 12.6 µM (inconclusive)
AC50 (Cytochrome P450 2D6): 28.2 µM (inconclusive)

Cc1nn(C)cc1/C=N\NC(=O)c1ccc2c(c1)c(C)c(C)n2Cc1ccccc1
EC50 [8]: 67.7 µM (active)

COc1cc(N=C(S)NC(C)(C)C)c(OC)cc1Cl
EC50 [8]: > 260 µM (inactive)

CCC(=O)Nc1c(S(=O)(=O)c2ccccc2)c2nc3ccccc3nc2n1C(C)c1ccccc1 (stereo not drawn)
EC50 [8]: > 260 µM (inactive)
